Measurements taken from patent publication US8617614B2, “Sustained release preparation for tissue regeneration therapy” (Ono Pharmaceutical Co., Ltd., priority 2006, dated 2013).

Test system: hippocampal CA1 region nerve cells
Test: Number of nerve cells in hippocampal CA1 region, rat 4-VO model (Nissl staining)
Assay type: in vivo
Conditions: for number of hippocampal CA1 pyramidal nerve cells relative to the group given the medium (Test Group 3): rat 4-VO Test 1, day 42, s.c. twice daily, present drug 10, ornoprostil 0.1, PGE1•αCD 1.5 and 3 mg/kg

Structure (SMILES) | Number of nerve cells per unit length (count/mm) Left (L) (rat 4-VO Test 1, Test Group 6: 1.5 mg/kg (as PGE1) s.c. twice daily 42 days) [count/mm] | number of hippocampal CA1 pyramidal nerve cells relative to the group given the medium (Test Group 3)
CCCCC[C@H](O)/C=C/[C@H]1[C@H](O)CC(=O)[C@@H]1CCCCCCC(=O)O [PGE1•αCD, prostaglandin E1, reference compound] | 105.7 ± 24.0 | significant increase
CCCC[C@H](C)C[C@H](O)/C=C/[C@H]1[C@H](O)CC(=O)[C@@H]1CC(=O)CCCCC(=O)OC [ornoprostil, reference compound] | – | significant increase
